Where a name gives a salt, the structure may show the parent alone.
Target: ROCK2 (Homo sapiens, UniProt O75116)
Test: ROCK assay: phosphorylation of FITC peptide substrate, LABCHIP 3000 mobility shift
Assay type: biochemical
Conditions: 5 μM ATP, 1.5 μM peptide substrate; read-out: ROCK2 Activity (ROCK IC50 range)
In short: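 IC50 values come from curve-fitting percent kinase inhibition across a compound dilution series. The reaction is started with Rho kinase variant in HEPES pH 7.5 buffer with MgCl2, Brij-35 and DTT, with 5 μM ATP, 1.5 μM FITC-labelled peptide and under 2% DMSO. After EDTA quench, product and substrate are separated by microfluidic mobility shift.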

Sequence of ROCK2 (O75116 whole entry, species assumed): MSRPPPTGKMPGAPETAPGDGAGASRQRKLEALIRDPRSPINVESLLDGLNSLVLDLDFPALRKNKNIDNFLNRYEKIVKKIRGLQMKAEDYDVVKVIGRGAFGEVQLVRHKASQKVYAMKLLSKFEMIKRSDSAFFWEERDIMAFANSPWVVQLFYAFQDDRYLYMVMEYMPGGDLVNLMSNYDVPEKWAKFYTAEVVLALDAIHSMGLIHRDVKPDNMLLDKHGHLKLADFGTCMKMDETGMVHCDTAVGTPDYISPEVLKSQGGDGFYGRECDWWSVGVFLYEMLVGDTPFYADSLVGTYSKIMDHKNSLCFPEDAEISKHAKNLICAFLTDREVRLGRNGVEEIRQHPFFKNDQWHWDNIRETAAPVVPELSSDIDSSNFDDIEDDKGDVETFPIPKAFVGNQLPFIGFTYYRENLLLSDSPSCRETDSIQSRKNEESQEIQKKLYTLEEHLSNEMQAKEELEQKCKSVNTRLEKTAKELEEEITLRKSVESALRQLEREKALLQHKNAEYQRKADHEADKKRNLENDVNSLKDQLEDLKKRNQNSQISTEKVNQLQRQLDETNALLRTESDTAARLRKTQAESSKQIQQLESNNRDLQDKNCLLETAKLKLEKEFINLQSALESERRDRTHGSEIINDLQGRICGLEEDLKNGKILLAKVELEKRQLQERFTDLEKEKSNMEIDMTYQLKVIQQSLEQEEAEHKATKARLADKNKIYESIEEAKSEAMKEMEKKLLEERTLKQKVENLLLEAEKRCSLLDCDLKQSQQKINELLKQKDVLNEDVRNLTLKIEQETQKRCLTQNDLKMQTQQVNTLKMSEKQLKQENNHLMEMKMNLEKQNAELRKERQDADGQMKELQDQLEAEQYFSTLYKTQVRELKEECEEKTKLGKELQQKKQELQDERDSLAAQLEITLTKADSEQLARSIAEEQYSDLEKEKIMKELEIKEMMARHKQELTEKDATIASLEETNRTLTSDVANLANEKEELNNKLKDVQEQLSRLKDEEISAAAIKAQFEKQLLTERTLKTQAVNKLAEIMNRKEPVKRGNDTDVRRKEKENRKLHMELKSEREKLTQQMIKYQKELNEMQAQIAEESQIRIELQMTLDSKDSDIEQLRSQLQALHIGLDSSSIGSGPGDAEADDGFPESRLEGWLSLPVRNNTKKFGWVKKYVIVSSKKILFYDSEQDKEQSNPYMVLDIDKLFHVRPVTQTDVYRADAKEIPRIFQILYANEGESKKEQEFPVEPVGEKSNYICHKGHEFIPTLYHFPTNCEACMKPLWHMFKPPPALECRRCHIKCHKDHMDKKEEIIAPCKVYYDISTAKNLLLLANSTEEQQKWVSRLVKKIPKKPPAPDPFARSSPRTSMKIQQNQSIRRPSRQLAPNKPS

Structure (SMILES) | IC50
O=C(NC1CC2(C1)CC(c1n[nH]c(=O)c3ccccc13)C2)c1cnn2cc(N3CC(F)(F)C3)ccc12 [Example 92, 6-(3,3-difluoroazetidin-1-yl)-N-((aR)-6-(4-oxo-3,4-dihydrophthalazin-1-yl)spiro[3.3]heptan-2-yl)pyrazolo[1,5-a]pyridine-3-carboxamide] | 0.2 to 2 nM
O=C(NC1CC2(C1)CC(c1n[nH]c(=O)c3ccccc13)C2)c1cnn2cc(OCC(O)C(F)(F)F)ccc12 [Example 107, N-((aR)-6-(4-oxo-3,4-dihydrophthalazin-1-yl)spiro[3.3]heptan-2-yl)-6-(3,3,3-trifluoro-2-hydroxypropoxy)pyrazolo[1,5-a]pyridine-3-carboxamide] | 0.2 to 2 nM
O=C(NC1CC2(C1)CC(c1n[nH]c(=O)c3ccccc13)C2)c1cnn2cc(OC(F)F)ccc12 [Example 79, 6-(difluoromethoxy)-N-((aR)-6-(4-oxo-3,4-dihydrophthalazin-1-yl)spiro[3.3]heptan-2-yl)pyrazolo[1,5-a]pyridine-3-carboxamide] | 2.01 to 5 nM
CC(C)(O)Cn1nc(C(=O)NC2CC3(C2)CC(c2n[nH]c(=O)c4ccccc24)C3)c2ccc(-c3c(F)cccc3F)cc21 (stereo not drawn) [Example 159, 6-(2,6-difluorophenyl)-1-(2-hydroxy-2-methylpropyl)-N-((αR)-6-(4-oxo-3,4-dihydrophthalazin-1-yl)spiro[3.3]heptan-2-yl)-1H-indazole-3-carboxamide] | 2.01 to 5 nM
COc1ccc2c(C(=O)NC3CC4(C3)CC(c3n[nH]c(=O)c5ccccc35)C4)nn(CC(C)(C)O)c2c1 [Example 62, 1-(2-hydroxy-2-methylpropyl)-6-methoxy-N-((aR)-6-(4-oxo-3,4-dihydrophthalazin-1-yl)spiro[3.3]heptan-2-yl)-1H-indazole-3-carboxamide] | 0.2 to 2 nM
O=C(NC1CC2(C1)CC(F)(c1n[nH]c(=O)c3ccccc13)C2)c1cnn2ccccc12 (stereo not drawn) [Example 164, N-(6-fluoro-6-(4-oxo-3,4-dihydrophthalazin-1-yl)spiro[3.3]heptan-2-yl)pyrazolo[1,5-α]pyridine-3-carboxamide] | 15.1 to 100 nM
CN1CCN(CCOc2ccc3c(C(=O)NC4CC5(C4)CC(c4n[nH]c(=O)c6ccccc46)C5)cnn3c2)CC1 [Example 188, 6-(2-(4-methylpiperazin-1-yl)ethoxy)-N-((aR)-6-(4-oxo-3,4-dihydrophthalazin-1-yl)spiro[3.3]heptan-2-yl)pyrazolo[1,5-a]pyridine-3-carboxamide] | 0.2 to 2 nM
O=C(NC1CC2(C1)CC(c1n[nH]c(=O)c3ccccc13)C2)c1cnn2cc(-c3cnn(C4CC4)c3)ccc12 [Example 217, 6-(1-cyclopropyl-1H-pyrazol-4-yl)-N-((aR)-6-(4-oxo-3,4-dihydrophthalazin-1-yl)spiro[3.3]heptan-2-yl)pyrazolo[1,5-a]pyridine-3-carboxamide] | 0.2 to 2 nM
O=C(NC1CC2(C1)CC(c1n[nH]c(=O)c3ccccc13)C2)c1cnn2cc(OC3CC(F)(F)C3)ccc12 (stereo not drawn) [Example 138, 6-(3,3-difluorocyclobutoxy)-N-((αR)-6-(4-oxo-3,4-dihydrophthalazin-1-yl)spiro[3.3]heptan-2-yl)pyrazolo[1,5-α]pyridine-3-carboxamide] | 0.2 to 2 nM
COc1ccn2ncc(C(=O)NC3CC4(C3)CC(c3n[nH]c(=O)c5ccccc35)C4)c2c1 [Example 64, 5-methoxy-N-((aR)-6-(4-oxo-3,4-dihydrophthalazin-1-yl)spiro[3.3]heptan-2-yl)pyrazolo[1,5-a]pyridine-3-carboxamide] | 5.1 to 15 nM
Cc1nc(N2CCOCC2)sc1C(=O)NC1CC2(C1)CC(c1n[nH]c(=O)c3ccccc13)C2 [Example 34, 4-methyl-2-(morpholin-4-yl)-N-[(aR)-6-(4-oxo-3,4-dihydrophthalazin-1-yl)spiro[3.3]heptan-2-yl]-1,3-thiazole-5-carboxamide] | 15.1 to 100 nM
CC(C)(O)Cn1cc(C(=O)NC2CC3(C2)CC(c2n[nH]c(=O)c4ccccc24)C3)c2cccnc21 [Example 66, 1-(2-hydroxy-2-methylpropyl)-N-((aR)-6-(4-oxo-3,4-dihydrophthalazin-1-yl)spiro[3.3]heptan-2-yl)-1H-pyrrolo[2,3-b]pyridine-3-carboxamide] | 5.1 to 15 nM
O=C(NC1CC2(C1)CC(c1n[nH]c(=O)c3ccccc13)C2)c1cnn2cc(-n3cncn3)ccc12 (stereo not drawn) [Example 178, N-((αR)-6-(4-oxo-3,4-dihydrophthalazin-1-yl)spiro[3.3]heptan-2-yl)-6-(1H-1,2,4-triazol-1-yl)pyrazolo[1,5-α]pyridine-3-carboxamide] | 2.01 to 5 nM

Now from value to compound:

IC50 | Structure (SMILES)
5.1 to 15 nM | O=C(NC1CC2(C1)CC(c1n[nH]c(=O)c3ccccc13)C2)N1Cc2ccc(-c3cnn(C4CCOCC4)c3)cc2C1 [Example 251, N-((aR)-6-(4-oxo-3,4-dihydrophthalazin-1-yl)spiro[3.3]heptan-2-yl)-5-(1-(tetrahydro-2H-pyran-4-yl)-1H-pyrazol-4-yl)isoindoline-2-carboxamide]
5.1 to 15 nM | COC(=O)N1CCc2c(C(=O)N[C@H]3CC4(C3)C[C@H](c3n[nH]c(=O)c5ccccc53)C4)csc2C1 (stereo partly drawn) [Example 275, methyl 3-(((aR)-6-(4-oxo-3,4-dihydrophthalazin-1-yl)spiro[3.3]heptan-2-yl)carbamoyl)-4,5-dihydrothieno[2,3-c]pyridine-6(7H)-carboxylate]
2.01 to 5 nM | O=C(NC1CC2(C1)CC(c1n[nH]c(=O)c3ccccc13)C2)c1noc2ccc(Cl)cc12 [Example 290, 5-chloro-N-((aR)-6-(4-oxo-3,4-dihydrophthalazin-1-yl)spiro[3.3]heptan-2-yl)benzo[d]isoxazole-3-carboxamide]
15.1 to 100 nM | [H][C@]1(c2n[nH]c(=O)c3ccccc32)C[C@]2(C[C@@H](NC(=O)c3ccc4c(c3)COc3cncnc3-4)C2)C1 (stereo partly drawn) [Example 421, N-((aR)-6-(4-oxo-3,4-dihydrophthalazin-1-yl)spiro[3.3]heptan-2-yl)-6H-isochromeno[4,3-d]pyrimidine-8-carboxamide]
5.1 to 15 nM | [H][C@]1(c2n[nH]c(=O)c3ccccc32)C[C@@]2(C[C@H](NC(=O)c3cc4ccccc4n3C)C2)C1 (stereo partly drawn) [Example 294, 1-methyl-N-((aR)-6-(4-oxo-3,4-dihydrophthalazin-1-yl)spiro[3.3]heptan-2-yl)-1H-indole-2-carboxamide]
2.01 to 5 nM | [H][C@]1(c2n[nH]c(=O)c3ccccc32)C[C@]2(C[C@@H](NC(=O)c3ccc(-c4cnn(C(C)C)c4)c(F)c3)C2)C1 (stereo partly drawn) [Example 446, 3-fluoro-4-(1-isopropyl-1H-pyrazol-4-yl)-N-((aR)-6-(4-oxo-3,4-dihydrophthalazin-1-yl)spiro[3.3]heptan-2-yl)benzamide]
0.2 to 2 nM | [H][C@]1(c2n[nH]c(=O)c3ccccc32)C[C@@]2(C[C@H](NC(=O)c3cnc4cc(N5CC[C@H](F)C5)ccn34)C2)C1 (stereo partly drawn) [Example 394, 7-((S)-3-fluoropyrrolidin-1-yl)-N-((aR)-6-(4-oxo-3,4-dihydrophthalazin-1-yl)spiro[3.3]heptan-2-yl)imidazo[1,2-a]pyridine-3-carboxamide]
0.2 to 2 nM | CC(C)(O)COc1ccc2c(C(=O)NC3CC4(C3)CC(c3n[nH]c(=O)c5ccccc35)C4)onc2c1 [Example 287, 6-(2-hydroxy-2-methylpropoxy)-N-((aR)-6-(4-oxo-3,4-dihydrophthalazin-1-yl)spiro[3.3]heptan-2-yl)benzo[c]isoxazole-3-carboxamide, TFA]

Reference: patent US9902702B2, “Spirocycloheptanes as inhibitors of rock” (BRISTOL-MYERS SQUIBB COMPANY, priority 2014, dated 2018)
